One may read the EC50 as the concentration that produces a half-maximal response. Low readings indicate greater potency, high ones weaker potency.

The target of the experiment is GLP-1 Receptor (Homo sapiens, UniProt P43220). In words: GLP-1R agonist cAMP stimulation assay (HEK293/GLP1R/CRE-LUC cells, cAMP dynamic 2 Kit). The settings on record: HEK293/CRE-Luc cell line stably expressing the GLP-1 Receptor, 30 min at 37° C. In kind it is cell-based. In short, it runs like this: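 cAMP measured by HTRF competition (d2-labelled cAMP with cryptate antibody, 1 h, room temperature, protected from light). Before that, GLP1R/CRE-Luc HEK293 cells (1000/well) were exposed for 30 min at 37 °C to half-log compound dilutions in DPBS containing IBMX 0.5 mM and BSA 0.1%.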
Sequence of GLP-1 Receptor (P43220 24-463, species assumed): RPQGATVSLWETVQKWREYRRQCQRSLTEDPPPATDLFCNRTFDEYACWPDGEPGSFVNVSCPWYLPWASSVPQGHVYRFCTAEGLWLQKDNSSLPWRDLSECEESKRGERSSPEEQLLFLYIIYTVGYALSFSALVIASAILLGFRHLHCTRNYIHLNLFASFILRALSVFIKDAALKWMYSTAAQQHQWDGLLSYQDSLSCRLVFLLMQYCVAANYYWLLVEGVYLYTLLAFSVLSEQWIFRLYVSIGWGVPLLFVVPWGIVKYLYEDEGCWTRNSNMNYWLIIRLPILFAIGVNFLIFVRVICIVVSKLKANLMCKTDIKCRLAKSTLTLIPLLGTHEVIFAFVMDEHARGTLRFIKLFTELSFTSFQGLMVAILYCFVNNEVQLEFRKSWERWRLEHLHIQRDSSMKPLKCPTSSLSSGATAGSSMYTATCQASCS
As to `O=C(Nc1ccc2c(c1)nc(CN1CCC(c3cccc(OCc4ccc(Cl)cc4F)n3)CC1)n2C[C@@H]1CCO1)c1ccccn1` [Compound 170a, N-{2-[(4-{6-[(4-chloro-2-fluorophenyl)methoxy]pyridin-2-yl}piperidin-1-yl)methyl]-1-{[(2S)-oxetan-2-yl]methyl}-1H-1,3-benzodiazol-5-yl}pyridine-2-carboxamide], the EC50 came out at 0.14 nM.
`CNc1c(Nc2ccc3c(c2)nc(CN2CCC(c4cccc(OCc5ccc(Cl)cc5F)n4)CC2)n3C[C@@H]2CCO2)c(=O)c1=O` [Compound 208a, 3-({2-[(4-{6-[(4-chloro-2-fluorophenyl)methoxy]pyridin-2-yl}piperidin-1-yl)methyl]-1-{[(2S)-oxetan-2-yl]methyl}-1H-1,3-benzodiazol-5-yl}amino)-4-(methylamino)cyclobut-3-ene-1,2-dione] registered an EC50 of 1.8 nM.
The result for `CC1(C)CCC(C(=O)Nc2ccc3c(c2)nc(CN2CCC(c4cccc(OCc5ccc(Cl)cc5F)n4)CC2)n3C[C@@H]2CCO2)CO1` (stereo partly drawn) [Compound 192a, N-{2-[(4-{6-[(4-chloro-2-fluorophenyl)methoxy]pyridin-2-yl}piperidin-1-yl)methyl]-1-{[(2S)-oxetan-2-yl]methyl}-1H-1,3-benzodiazol-5-yl}-6,6-dimethyloxane-3-carboxamide] reads 6.2 nM.
`CC1(c2ccc(F)cc2)Oc2cccc(C3CCN(Cc4nc5cc(-c6nnc(C(F)(F)F)[nH]6)ccc5n4C[C@@H]4CCO4)CC3)c2O1` (stereo partly drawn) [Compound 258a, 2-({4-[2-(4-fluorophenyl)-2-methyl-2H-1,3-benzodioxol-4-yl]piperidin-1-yl}methyl)-1-{[(2S)-oxetan-2-yl]methyl}-5-[5-(trifluoromethyl)-4H-1,2,4-triazol-3-yl]-1H-1,3-benzodiazole]: the response was half-maximal at 0.16 nM (EC50).
The compound `Cc1nnc(-c2cc3nc(CN4CCC(c5cccc6c5O[C@@](C)(c5ccc(C#N)cc5F)O6)CC4)n(C[C@@H]4CCO4)c3cn2)[nH]1` [Compound 288a, 3-fluoro-4-[(2S)-2-methyl-4-(1-{[6-(5-methyl-4H-1,2,4-triazol-3-yl)-3-{[(2S)-oxetan-2-yl]methyl}-3H-imidazo[4,5-c]pyridin-2-yl]methyl}piperidin-4-yl)-2H-1,3-benzodioxol-2-yl]benzonitrile] yielded an EC50 of 0.0087 nM.
For the compound `Fc1cc(Cl)ccc1COc1cccc(C2CCN(Cc3nc4cc(-c5ccn(C6CCCOC6)n5)ccc4n3C[C@@H]3CCO3)CC2)n1` (stereo partly drawn) [Compound 216a, 2-[(4-{6-[(4-chloro-2-fluorophenyl)methoxy]pyridin-2-yl}piperidin-1-yl)methyl]-5-[1-(oxan-3-yl)-1H-pyrazol-3-yl]-1-{[(2S)-oxetan-2-yl]methyl}-1H-1,3-benzodiazole], the EC50 is 8.8 nM.
The result for `CC1(c2ccc(Cl)cc2)Oc2cccc(C3CCN(Cc4nc5cc(-c6nnc(C(F)(F)F)[nH]6)cnc5n4C[C@@H]4CCO4)CC3)c2O1` (stereo partly drawn) [Compound 225a, 4-[2-(4-chlorophenyl)-2-methyl-2H-1,3-benzodioxol-4-yl]-1-[(3-{[(2S)-oxetan-2-yl]methyl}-6-[5-(trifluoromethyl)-4H-1,2,4-triazol-3-yl]-3H-imidazo[4,5-b]pyridin-2-yl)methyl]piperidine] reads 0.064 nM.
The figure for `CO[C@H](C)Cn1c(CN2CCC(c3cccc4c3O[C@@](C)(c3ccc(Cl)cn3)O4)CC2)nc2cc(-c3nnc(C(F)(F)F)[nH]3)ncc21` [Compound 455a, 5-chloro-2-[(2S)-4-[1-({3-[(2R)-2-methoxypropyl]-6-[5-(trifluoromethyl)-4H-1,2,4-triazol-3-yl]-3H-imidazo[4,5-c]pyridin-2-yl}methyl)piperidin-4-yl]-2-methyl-2H-1,3-benzodioxol-2-yl]pyridine] is 0.12 nM.
The result for `Cn1nc(-c2ccc3c(c2)nc(CN2CCC(c4cccc5c4OC(C)(c4ccc(Cl)cc4F)O5)CC2)n3C[C@@H]2CCO2)oc1=O` (stereo partly drawn) [Compound 220a, 5-[2-({4-[2-(4-chloro-2-fluorophenyl)-2-methyl-2H-1,3-benzodioxol-4-yl]piperidin-1-yl}methyl)-1-{[(2S)-oxetan-2-yl]methyl}-1H-1,3-benzodiazol-5-yl]-3-methyl-2,3-dihydro-1,3,4-oxadiazol-2-one] reads 2.8 nM.
`O=C(Nc1ccc2c(c1)nc(CN1CCC(c3cccc(OCc4ccc(Cl)cc4F)n3)CC1)n2C[C@@H]1CCO1)C1COCCO1` (stereo partly drawn) [Compound 172a, N-{2-[(4-{6-[(4-chloro-2-fluorophenyl)methoxy]pyridin-2-yl}piperidin-1-yl)methyl]-1-{[(2S)-oxetan-2-yl]methyl}-1H-1,3-benzodiazol-5-yl}-1,4-dioxane-2-carboxamide] had a half-maximal effective concentration (EC50) of 0.31 nM.
The result for `O=c1[nH]c(-c2cnc3c(c2)nc(CN2CC=C(c4ccc(F)c(OCc5ccc(Cl)cc5F)c4)CC2)n3C[C@@H]2CCO2)no1` [Compound 293a, 3-{2-[(4-{3-[(4-chloro-2-fluorophenyl)methoxy]-4-fluorophenyl}-1,2,3,6-tetrahydropyridin-1-yl)methyl]-3-{[(2S)-oxetan-2-yl]methyl}-3H-imidazo[4,5-b]pyridin-6-yl}-4,5-dihydro-1,2,4-oxadiazol-5-one] reads 2.8 nM; that for `O=C(Nc1ccc2c(c1)nc(CN1CCC(c3cccc(OCc4ccc(Cl)cc4F)n3)CC1)n2C[C@@H]1CCO1)c1cccnc1` [Compound 168a, N-{2-[(4-{6-[(4-chloro-2-fluorophenyl)methoxy]pyridin-2-yl}piperidin-1-yl)methyl]-1-{[(2S)-oxetan-2-yl]methyl}-1H-1,3-benzodiazol-5-yl}pyridine-3-carboxamide], 0.058 nM; that for `CC(=O)Nc1ccc2c(c1)nc(CN1CCC(c3cccc(OCc4ccc(Cl)cc4F)n3)CC1)n2C[C@@H]1CCO1` [Compound 101a, (S)—N-(2-((4-(6-((4-chloro-2-fluorobenzyl)oxy)pyridin-2-yl)piperidin-1-yl)methyl)-1-(oxetan-2-ylmethyl)-1H-benzo[d]imidazol-5-yl)acetamide], 1.09 nM.
The figure for `C[C@]1(c2ccc(Cl)cc2F)Oc2cccc(C3CCN(Cc4nc5cc(-c6nnc(C7CC7)[nH]6)ncc5n4C[C@@H]4CCO4)CC3)c2O1` [Compound 281a, 4-[(2S)-2-(4-chloro-2-fluorophenyl)-2-methyl-2H-1,3-benzodioxol-4-yl]-1-{[6-(5-cyclopropyl-4H-1,2,4-triazol-3-yl)-3-{[(2S)-oxetan-2-yl]methyl}-3H-imidazo[4,5-c]pyridin-2-yl]methyl}piperidine] is 0.023 nM.
The result for `O=c1[nH]c(-c2cc3nc(CN4CC=C(c5ccc(F)c(OCc6ccc(Cl)cc6F)c5)CC4)n(C[C@@H]4CCO4)c3cn2)no1` [Compound 299a, 3-{2-[(4-{3-[(4-chloro-2-fluorophenyl)methoxy]-4-fluorophenyl}-1,2,3,6-tetrahydropyridin-1-yl)methyl]-3-{[(2S)-oxetan-2-yl]methyl}-3H-imidazo[4,5-c]pyridin-6-yl}-4,5-dihydro-1,2,4-oxadiazol-5-one] reads 0.26 nM.
`C[C@H](Cn1c(CN2CCC(c3cccc4c3O[C@@](C)(c3ccc(Cl)cn3)O4)CC2)nc2cc(-c3nnc(C(F)(F)F)[nH]3)ncc21)OC(F)F` [Compound 476a, 5-chloro-2-[(2S)-4-[1-({3-[(2R)-2-(difluoromethoxy)propyl]-6-[5-(trifluoromethyl)-4H-1,2,4-triazol-3-yl]-3H-imidazo[4,5-c]pyridin-2-yl}methyl)piperidin-4-yl]-2-methyl-2H-1,3-benzodioxol-2-yl]pyridine] had a half-maximal effective concentration (EC50) of 0.25 nM. The EC50 values of the last two compounds are within 1.5-fold of each other.
The figure for `CC(=O)Nc1cnc2c(c1)nc(CN1CCC(c3cccc(OCc4ccc(Cl)cc4F)n3)CC1)n2C[C@@H]1CCO1` [Compound 131a, N-{2-[(4-{6-[(4-chloro-2-fluorophenyl)methoxy]pyridin-2-yl}piperidin-1-yl)methyl]-3-{[(2S)-oxetan-2-yl]methyl}-3H-imidazo[4,5-b]pyridin-6-yl}acetamide] is 6.3 nM.
The result for `CC1(c2ccc(Cl)cc2F)Oc2cc(F)cc(C3CCN(Cc4nc5cc(-c6nnc(C(F)(F)F)[nH]6)ncc5n4C[C@@H]4CCO4)CC3)c2O1` (stereo partly drawn) [Compound 441a, 4-[2-(4-chloro-2-fluorophenyl)-6-fluoro-2-methyl-2H-1,3-benzodioxol-4-yl]-1-[(3-{[(2S)-oxetan-2-yl]methyl}-6-[5-(trifluoromethyl)-4H-1,2,4-triazol-3-yl]-3H-imidazo[4,5-c]pyridin-2-yl)methyl]piperidine] reads 0.025 nM.
The result for `CC1(c2ccc(C#N)cn2)Oc2cccc(C3CCN(Cc4nc5cc(-c6nnc(C(F)(F)F)[nH]6)ccc5n4C[C@@H]4CCO4)CC3)c2O1` (stereo partly drawn) [Compound 354a, 6-(2-methyl-4-{1-[(1-{[(2S)-oxetan-2-yl]methyl}-5-[5-(trifluoromethyl)-4H-1,2,4-triazol-3-yl]-1H-1,3-benzodiazol-2-yl)methyl]piperidin-4-yl}-2H-1,3-benzodioxol-2-yl)pyridine-3-carbonitrile] reads 0.11 nM; that for `CC1(c2ccc(Cl)cc2F)Oc2cccc(C3CCN(Cc4nc5cc(-c6n[nH]c(=O)[nH]6)ccc5n4C[C@@H]4CCO4)CC3)c2O1` (stereo partly drawn) [Compound 355a, 3-[2-({4-[2-(4-chloro-2-fluorophenyl)-2-methyl-2H-1,3-benzodioxol-4-yl]piperidin-1-yl}methyl)-1-{[(2S)-oxetan-2-yl]methyl}-1H-1,3-benzodiazol-5-yl]-4,5-dihydro-1H-1,2,4-triazol-5-one], 7 nM; that for `CC1(c2ccc(Cl)cn2)Oc2cccc(C3CCN(Cc4nc5cc(-c6nnc(C7CC7)[nH]6)ncc5n4C[C@@H]4CCO4)CC3)c2O1` (stereo partly drawn) [Compound 266a, 5-chloro-2-[4-(1-{[6-(5-cyclopropyl-4H-1,2,4-triazol-3-yl)-3-{[(2S)-oxetan-2-yl]methyl}-3H-imidazo[4,5-c]pyridin-2-yl]methyl}piperidin-4-yl)-2-methyl-2H-1,3-benzodioxol-2-yl]pyridine], 0.094 nM.

Values taken from patent US20230391760A1, “HETEROCYCLIC GLP-1 AGONISTS” (Gasherbrum Bio, Inc., priority 2020, published 2023).
